In patent publication US6872732B2, “Heterocyclic derivatives and medicinal use thereof” (Kyoto Pharmaceutical Industries, Ltd., priority 2001, dated 2005):
Where two headings read alike, the source gives them in different places.

Legend:
[1] = tested on: male KK-A^y mice; experiment: Decrease of plasma glucose and triglyceride in KK-Ay mice; type: in vivo; conditions: non-fasting, 10 mg/kg/day orally for 4 consecutive days, 24 hours after final administration, vs control group
Method: The test compounds (compounds of Examples 2, 6, 8, 16, 26, 27 and 31) were suspended in 5% gum arabic solution and administered (10 mg/kg/day) orally to the administration group for 4 consecutive days from the next day. The 5% gum arabic solution was orally administered to the control group.

[2] = tested on: male db/db mice; conditions: for Decrease (%) in glucose level / Decrease (%) in triglyceride: plasma, 24 hours after final administration
Method: Using db/db mice genetically showing high plasma glucose, hypertriglyceridemia, insulin resistance and obesity, the pharmacological activity of the test compound of Example 6 was examined.
Blood was drawn under a non-fasting state from the tail vein of male db/db mice, the glucose level and triglyceride level of the plasma were measured using commercially available assay kits (glucose CII-test WAKO and triglyceride G-test WAKO, Wako Pure Chemical Industries, Ltd.). The mice were grouped (6 mice per group) into a control group and test compound (compound of Example 6) administration groups (3 and 10 mg/kg/day), such that the mean and standard deviation of the body weight and the plasma glucose and plasma triglyceride levels in each group were nearly the same. The test compound was suspended in 0.5% methylcellulose solution and administered orally for 2 consecutive weeks from the next day. The 0.5% methylcellulose solution was orally administered to the control group. Blood was drawn under a non-fasting state from the tail vein 24 hours after the final administration and the glucose and triglyceride levels of the plasma were measured. The decrease in the plasma glucose and triglyceride levels was calculated from the following formula.

[3] = tested on: 6-week-old male SD rats; conditions: 30 and 100 mg/kg/day orally, 4 consecutive weeks
Method: Using 6-week-old male SD rats, toxicity by repeat administration was examined.
(§1) The rats were grouped (6 rats per group) into a control group and test compound (compound of Example 6) administration groups (30 and 100 mg/kg/day), such that the mean and the standard deviation of the body weight of the rats were nearly the same. The test compound was suspended in 0.5% methylcellulose solution and administered orally for 4 consecutive weeks from the next day. The 0.5% methylcellulose solution was orally administered to the control group. The rats were fasted for 16 hr from the last day of administration, anesthetized by intraperitoneal administration of pentobarbital sodium (50 mg/kg) 24 hr after the final administration and the blood was drawn. Using EDTA-added blood, hematocrit value and erythrocyte count were measured, and using serum, AST (GOT) and ALT (GPT) were measured. In addition, the total blood volume was calculated. The white fat around the epididymides, and the liver and heart were removed and wet weights thereof were measured.

[4] = tested on: 6-week-old female Wistar rats; conditions: 30 and 100 mg/kg/day orally, 2 consecutive weeks
Method: Using 6-week-old female Wistar rats, toxicity by repeat administration was examined.
as §1, with “for 2” for “for 4”, “the uterus,” for “the epididymides,”

[5] = 3 and 10 mg/kg/day orally, 2 weeks
[6] = 3 mg/kg/day orally for 2 consecutive weeks
[7] = 10 mg/kg/day orally for 2 consecutive weeks

CC(C)(C)N.CC=CC=CC(=O)N1Cc2cc(OCCc3nc(-c4ccc(N(C)C)cc4)oc3C)ccc2C[C@H]1C(=O)O [Example 31, tert-butylamine 7-{2-[2-(4-dimethylaminophenyl)-5-methyloxazol-4-yl]ethoxy}-2-(2,4-hexadienoyl)-1,2,3,4-tetrahydroisoquinoline-(3S)-carboxylate]
Decrease (%) in glucose level [1]: 39.4%
Decrease (%) in triglyceride [1]: 20.1%

CCCC#CC(=O)N1Cc2cc(OCCc3nc(-c4ccccc4)oc3C)ccc2C[C@H]1C(=O)O [Example 8, 2-(2-hexynoyl)-7-[2-(5-methyl-2-phenyloxazol-4-yl)ethoxy]-1,2,3,4-tetrahydroisoquinoline-(3S)-carboxylic acid]
Decrease (%) in glucose level [1]: 46.1%
Decrease (%) in triglyceride [1]: 55.2%

CC(C)(C)N.CC=CC=CC(=O)N1Cc2cc(OCCc3nc(-c4ccc(OCc5ccccc5)cc4)oc3C)ccc2C[C@H]1C(=O)O [Example 26, tert-butylamine 7-{2-[2-(4-benzyloxyphenyl)-5-methyloxazol-4-yl]ethoxy}-2-(2,4-hexadienoyl)-1,2,3,4-tetrahydroisoquinoline-(3S)-carboxylate]
Decrease (%) in glucose level [1]: 43.7%
Decrease (%) in triglyceride [1]: 67.8%

CC(C)(C)N.CC=CC=CC(=O)N1Cc2cc(OCCc3nc(-c4ccc(C(C)(C)C)cc4)oc3C)ccc2C[C@H]1C(=O)O [Example 16, tert-butylamine 7-{2-[2-(4-tert-butylphenyl)-5-methyloxazol-4-yl]ethoxy}-2-(2,4-hexadienoyl)-1,2,3,4-tetrahydroisoquinoline-(3S)-carboxylate]
Decrease (%) in glucose level [1]: 60.9%
Decrease (%) in triglyceride [1]: 73.4%

CC(C)(C)N.CC=CC=CC(=O)N1Cc2cc(OCCc3nc(-c4ccc(C(C)C)cc4)oc3C)ccc2C[C@H]1C(=O)O [Example 27, tert-butylamine 2-(2,4-hexadienoyl)-7-{2-[2-(4-isopropylphenyl)-5-methyloxazol-4-yl]ethoxy}-1,2,3,4-tetrahydroisoquinoline-(3S)-carboxylate]
Decrease (%) in glucose level [1]: 55.8%
Decrease (%) in triglyceride [1]: 73.8%

CCCCC=CC(=O)N1Cc2cc(OCCc3nc(-c4ccccc4)oc3C)ccc2C[C@H]1C(=O)O [Example 2, 2-(2-heptenoyl)-7-[2-(5-methyl-2-phenyloxazol-4-yl)ethoxy]-1,2,3,4-tetrahydroisoquinoline-(3S)-carboxylic acid]
Decrease (%) in glucose level [1]: 46.8%
Decrease (%) in triglyceride [1]: 44.9%

CC=CC=CC(=O)N1Cc2cc(OCCc3nc(-c4ccccc4)oc3C)ccc2C[C@H]1C(=O)O [Example 6]
plasma glucose level after treatment [2, 5]: almost the normal levels
plasma triglyceride level after treatment [2, 5]: almost the normal levels
Decrease (%) in glucose level [2, 6]: 59.9%
Decrease (%) in triglyceride [2, 6]: 77.1%
Decrease (%) in glucose level [2, 7]: 64.4%
Decrease (%) in triglyceride [2, 7]: 78.8%
Decrease (%) in glucose level [1]: 45.9%
Decrease (%) in triglyceride [1]: 45.7%
body weight, difference from control group [3]: no significant difference
erythrocyte count, difference from control group [3]: no significant difference
hematocrit value, difference from control group [3]: no significant difference
total blood volume, difference from control group [3]: no significant difference
weight of the heart, difference from control group [3]: no significant difference
weight of the liver, difference from control group [3]: no significant difference
weight of white fat around the epididymides, difference from control group [3]: no significant difference
ALT (GPT), difference from control group ([3]; serum): no significant difference
AST (GOT), difference from control group ([3]; serum): no significant difference
body weight, difference from control group [4]: no significant difference
erythrocyte count, difference from control group [4]: no significant difference
hematocrit value, difference from control group [4]: no significant difference
total blood volume, difference from control group [4]: no significant difference
weight of the heart, difference from control group [4]: no significant difference
weight of the liver, difference from control group [4]: no significant difference
weight of white fat around the uterus, difference from control group [4]: no significant difference
ALT (GPT), difference from control group ([4]; serum): no significant difference
AST (GOT), difference from control group ([4]; serum): no significant difference
